Five compounds from publication PMC12638379, “An innovative approach to development of new pyrazolylquinolin-2-one hybrids as dual EGFR and BRAF^V600E inhibitors” (Molecular Diversity, 2025) can be followed below.

The test system of one data set is normal cell line WI-38. As to the kind of experiment: MTT cytotoxicity on normal cell line WI-38. Particulars: for IC50: Homo sapiens, read-out: Antiproliferative activity IC50 ± SEM.
A further data set deals with caspase-3. As to the kind of experiment: Caspase-3 level in HOP-92 cells (RT-PCR fold change). The class given is cell-based, human. The settings on record: for Gene Expression FLD 2^ ΔΔCT Casp3: vs GAPDH, E=1.869, control = 1. From the text:
(§1) In the depicted findings, compound 4e affected Bcl-2, caspase-3, and caspase-9, increasing the expression of caspase-3/9 and decreasing the expression of Bcl-2, confirming the apoptotic status.
(§2) Researcher : Dr.Mohamed Hawas email: mohhawwas80@gmail.com mob. 01151345909 Assay : Cell Cycle Analysis mohamedhassan.pharm.ast@azhr.edu.eg Assay : RT-PCR Samples : 02 SamplesCell lines : ----Ref. : ----Date : 12-06-2023Reader : Rotorgene RT- PCR system Kit used : Qiagen RNA extraction/BioRad syber green PCR MMXSolvent : DMSOAssay samples : Cell Lysate
Allow all reagents to reach room temperature before use. Gently mix all liquidreagents prior to use. Determine the number of 8-well strips needed for the assay. Insert these in the frame(s) for current use. Add 100 μl of the Standard Diluent Buffer to the zero standard wells. Well(s) reserved for chromogen blank should be left empty. Add 100 μl of standards and controls or diluted samples to the appropriate microtiter wells. The sample dilution chosen should be optimized for each experimental system. Tap gently on side of plate to mix. Cover wells with plate cover and incubate for 2 hours at room temperature. Thoroughly aspirate or decant solution from wells and discard the liquid, Wash wells 4 times. Pipette 100 μl of Caspase-3 (Active) Detection Antibody solution into each well except the chromogen blank(s). Tap gently on the side of the plate to mix. Cover plate with plate cover and incubate for 1 hour at room temperature. Thoroughly aspirate or decant solution from wells and discard the liquid, Wash wells 4 times. Add 100 μl Anti-Rabbit IgG HRP Working Solution to each well except the chromogen blank(s). Prepare the working dilution as described in Preparing IgG HRP. Cover wells with the plate cover and incubate for 30 minutes at room temperature. Thoroughly aspirate or decant solution from wells and discard the liquid. Wash wells 4 times. Add 100 μl of Stabilized Chromogento each well. The liquid in the wells will begin to turn blue. Incubate for 30 minutes at room temperature and in the dark. The incubation time for chromogen substrate is often determined by the microtiter platereader used. Many plate readers have the capacity to record a maximum optical density (O.D.) of 2.0. The O.D. values should be monitored and the substrate reaction stopped before the O.D. of the positive wells exceeds the limits of the instrument. The O.D. values at 450 nm can only be read after the Stop Solution has been added to each well. […] Read the absorbance of each well at 450 nm having blanked the plate reader against a chromogen blank composed of 100 μl each of StabilizedChromogenand Stop Solution. Read the plate within 2 hours after adding the Stop Solution. […] Read the concentrations for unknown samples and controls from the standard curve. […]

The test system of another data set is caspase-9. As to the kind of experiment: Caspase-9 level in HOP-92 cells (RT-PCR fold change). The class given is cell-based, human. The settings on record: for Gene Expression FLD 2^ ΔΔCT Casp9: vs GAPDH, E=1.869, control = 1.
Text: as §1, §2
Cells were obtained from American Type Culture Collection, cells were grown in RPMI 1640 containing 10% fetal bovine serum at 37°C, stimulated with the compounds to be tested […], and lysed with Cell Extraction Buffer. This lysate was diluted in Standard Diluent Buffer over the range of the assay and measured for human active caspase-8 or 9 content. […] The absorbance of each microwell was read on a spectro-photometer at 450 nm. A standard curve is prepared from 7 human Caspases standard dilutions and human Caspase-8 or 9 concentration determined.

For a further data set, the system named is Bcl-2. As to the kind of experiment: Bcl-2 level in HOP-92 cells (RT-PCR fold change). The class given is cell-based, human. The settings on record: for Gene Expression FLD 2^ ΔΔCT bcl2: vs GAPDH, E=1.869, control = 1.
Text: as §1, §2
Mix all reagents thoroughly without foaming before use. Wash the microwells twice with approximately 300 μL Wash Buffer per well with thorough aspiration of microwell contents between washes. Take caution not to scratch the surface of the microwells. After the last wash, empty the wells and tap microwell strips on absorbent pad or paper towel to remove excess Wash Buffer. Use the microwell strips immediately after washing or place upside down on a wet absorbent paper for not longer than 15 minutes. […] Add 100 μL of Sample Diluent in duplicate to all standard wells and to the blank wells. Prepare standard (1:2 dilution) in duplicate ranging from 32 ng/mL to 0.5 ng/mL. Add 100 μL of Sample Diluent, in duplicate, to the blank wells. Add 80 μL of Sample Diluent, in duplicate, to the sample wells. Add 20 μL of each Sample, in duplicate, to the designated wells. Add 50 μL of diluted biotin-conjugate to all wells, including the blank wells. […] The point, at which the substrate reaction is stopped, is often determined by the ELISA reader. Many ELISA readers record absorbance only up to 2.0 O.D. Therefore, the color development within individual microwells must be watched by the person running the assay and the substrate reaction stopped before positive wells are no longer properly detectable. […] Results must be read immediately after the Stop Solution is added or within one hour if the microwell strips are stored at 2 - 8°C in the dark. Read absorbance of each microwell on a spectrophotometer using 450 nm as the primary wave length.

Each structure is given as a SMILES string.

For orientation: IC50 means the concentration that gives 50% inhibition. `C/C(=N\Nc1ccc(C(=O)O)cc1)c1cnn(-c2cc(=O)[nH]c3ccccc23)c1C` [Compound 4f, (E)-4-(2-(1-(5-methyl-1-(2-oxo-1,2-dihydroquinolin-4-yl)-1H-pyrazol-4-yl)ethylidene) hydrazineyl)benzoic acid]: the IC50 with normal cell line WI-38 was 42.1 ± 1.68 µM. The “% viability” value in the data set on normal cell line WI-38 (WI38, 0.4uM (log conc. -0.41), listed as ws6, 0.4 µM) is on record as 79.9762%; with normal cell line WI-38 (WI38, 1.6uM (log conc. 0.19), listed as ws6, 1.6 µM) it was 74.5098%; in the data set with normal cell line WI-38 (WI38, 6.3uM (log conc. 0.8), listed as ws6, 6.3 µM) it was 65.3595%; in the data set on normal cell line WI-38 (WI38, 100uM (log conc. 2), listed as ws6, 100 µM), 41.5924%.

Consider `C/C(=N\Nc1ccc(S(N)(=O)=O)cc1)c1cnn(-c2cc(=O)[nH]c3ccc(Br)cc23)c1C` [Compound 4e, (E)-4-(2-(1-(1-(6-bromo-2-oxo-1,2-dihydroquinolin-4-yl)-5-methyl-1H-pyrazol-4-yl)ethylidene)hydrazineyl)benzenesulfonamide], for which, in the data set on caspase-3 (control = 1), the “RT-PCR Fold Change FLD Casp3” value is on record as 4.716. The “Gene Expression FLD 2^ ΔΔCT Casp3” value with caspase-3 was 4.7162. In the data set on caspase-3 (vs untreated control), the “RT-PCR Fold Change Casp-3” value is given as 4.716 fold. Further, the “RT-PCR Fold Change FLD Casp9” value in the data set on caspase-9 (control = 1) was found to be 3.082. For the same compound, in the data set on caspase-9, the “Gene Expression FLD 2^ ΔΔCT Casp9” value is reported as 3.0825. Moreover, the “RT-PCR Fold Change Casp-9” value in the data set on caspase-9 (vs untreated control) worked out at 3.082 fold. The “RT-PCR Fold Change FLD Bcl2” value in the data set on Bcl-2 (control = 1) came to 0.299. The “Gene Expression FLD 2^ ΔΔCT bcl2” value in the data set with Bcl-2 is recorded as 0.2991. In addition, in the data set with normal cell line WI-38, the IC50 was determined as 29.6 ± 1.18 µM. The “% viability” value with normal cell line WI-38 (WI38, 0.4uM (log conc. -0.41), listed as Ws5, 0.4 µM) was found to be 83.1677%; in the data set on normal cell line WI-38 (WI38, 1.6uM (log conc. 0.19), listed as Ws5, 1.6 µM), 70.8075%; with normal cell line WI-38 (WI38, 6.3uM (log conc. 0.8), listed as Ws5, 6.3 µM), 60.9938%; in the data set on normal cell line WI-38 (WI38, 100uM (log conc. 2), listed as Ws5, 100 µM), 42.1118%.

For `C/C(=N\Nc1ccc(C(=O)O)cc1)c1cnn(-c2cc(=O)[nH]c3ccc(C)cc23)c1C` [Compound 4g, (E)-4-(2-(1-(5-methyl-1-(6-methyl-2-oxo-1,2-dihydroquinolin-4-yl)-1H-pyrazol-4-yl)ethylidene)hydrazineyl)benzoic acid], the IC50 with normal cell line WI-38 was 37.6 ± 1.5 µM. Moreover, the “% viability” value in the data set on normal cell line WI-38 (WI38, 0.4uM (log conc. -0.41), listed as Ws7, 0.4 µM) is recorded as 80.43%; with normal cell line WI-38 (WI38, 1.6uM (log conc. 0.19), listed as Ws7, 1.6 µM), 70.19%; with normal cell line WI-38 (WI38, 6.3uM (log conc. 0.8), listed as Ws7, 6.3 µM) it was 62.8%; in the data set on normal cell line WI-38 (WI38, 25uM (log conc. 1.4), listed as Ws7, 25 µM), 51.55%; with normal cell line WI-38 (WI38, 100uM (log conc. 2), listed as Ws7, 100 µM) it was 44.1%.

Turning to `CN[C@@H]1C[C@H]2O[C@@](C)([C@@H]1OC)n1c3ccccc3c3c4c(c5c6ccccc6n2c5c31)C(=O)NC4` [Staurosporine, reference compound], the “Gene Expression FLD 2^ ΔΔCT Casp3” value in the data set with caspase-3 worked out at 6.9067. The “Gene Expression FLD 2^ ΔΔCT Casp9” value in the data set with caspase-9 was 5.5143. For the same compound, the “Gene Expression FLD 2^ ΔΔCT bcl2” value with Bcl-2 was determined as 0.3265. Further, the “% viability” value in the data set on normal cell line WI-38 (WI38, 1.6uM (log conc. 0.19), listed as STA, 1.6 µM) turned out to be 68.1%; in the data set with normal cell line WI-38 (WI38, 100uM (log conc. 2), listed as STA, 100 µM) it was 37.43%.

For `C/C(=N\Nc1ccc(S(N)(=O)=O)cc1)c1cnn(-c2cc(=O)[nH]c3ccc(Cl)cc23)c1C` [Compound 4d, (E)-4-(2-(1-(1-(6-chloro-2-oxo-1,2-dihydroquinolin-4-yl)-5-methyl-1H-pyrazol-4-yl)ethylidene)hydrazineyl)benzenesulfonamide], the IC50 in the data set on normal cell line WI-38 was determined as 62.5 ± 2.49 µM. The “% viability” value in the data set on normal cell line WI-38 (WI38, 0.4uM (log conc. -0.41), listed as Ws4, 0.4 µM) is 80.87%; with normal cell line WI-38 (WI38, 1.6uM (log conc. 0.19), listed as Ws4, 1.6 µM), 73.32%; with normal cell line WI-38 (WI38, 6.3uM (log conc. 0.8), listed as Ws4, 6.3 µM), 63.52%; with normal cell line WI-38 (WI38, 25uM (log conc. 1.4), listed as Ws4, 25 µM), 56.21%; with normal cell line WI-38 (WI38, 100uM (log conc. 2), listed as Ws4, 100 µM), 46.82%.
